The record followed here is patent publication US20040171680A1, “Treating Syndrome X with substituted tetralins and indanes” (priority 2002, published 2004).

A word on the EC50: it is the concentration that produces a half-maximal response.

One experiment addresses T1, PPARδ (Homo sapiens, UniProt Q03181).
T1 construct: a Gal4-Luciferase reporter is co-transfected
T1 sequence (Q03181 171-441 limits assumed): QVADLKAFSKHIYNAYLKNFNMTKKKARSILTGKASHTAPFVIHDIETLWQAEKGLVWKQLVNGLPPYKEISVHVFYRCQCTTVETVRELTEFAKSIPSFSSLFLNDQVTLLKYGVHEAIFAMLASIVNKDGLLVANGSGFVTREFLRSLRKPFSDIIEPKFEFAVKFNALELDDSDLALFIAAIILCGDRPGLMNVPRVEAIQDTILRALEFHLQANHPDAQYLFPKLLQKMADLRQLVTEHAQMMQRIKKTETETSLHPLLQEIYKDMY
The experiment in a line: Transfection Assay for PPARδ Receptors (PPAR-Gal4 / Gal4-Luciferase reporter in HEK293 cells). It is filed as cell-based. The following applies: values in square brackets. The procedure, abridged: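 HEK293 cells co-transfected with PPAR-Gal4 receptor and Gal4-luciferase reporter, then moved into 5% charcoal-treated FBS medium. Compounds applied for 24 h at 37 °C, 5% CO2; luciferase activity read with Steady-Glo.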
(In a reporter assay the amount or activity of a reporter protein is the signal.)

Another experiment deals with ob/ob mice. Put plainly: 11 day oral dosing in female ob/ob mice. It counts as in vivo. Conditions: 1.0 mpk, once daily oral gavage for 11 days, % change compared to vehicle. The method, then: 11 Day Dosing of Example in Female, 7 week Old ob/ob Mice
(Female ob/ob mice (C57 BL/6J-Lep^ob, Jackson Labs, Bar Harbor, Me.), 7 weeks of age, were housed two per cage in solid-bottomed shoe box cages. Room temperature was maintained at 68-72° F. and humidity at 50-65%. Room lighting was on a 12-hour light/12-hour dark cycle. Mice were fed a certified NIH Rat and Mouse diet #5K50 (P M I Nutrition Int'l, St. Louis, Mo., via W. F. Fisher and Son, Inc., Bound Brook, N.J.). Food and water were supplied ad libitum.
The compound was prepared as suspensions in 0.5% hydroxypropylmethylcellulose (Dow Chemical, Midland, Mich.). The dosing volume was 10 mL/kg of body weight. Female ob/ob diabetic mice (8/group) were orally gavaged once daily for 11 days with either 0.5% methylcellulose in dH2O (vehicle) or PPAR agonist at 0.003, 0.01, 0.03, 0.1, 0.3, 1 mg/kg/day. Body weight was measured in the mornings on Day 1, prior to dosing, and on Day 12 before bleeding. 18 hours after the final dose for each group, the mice were anesthetized with CO2/O2 (70%:30%) and bled by retro-orbital sinus puncture into micro-tubes containing clog activator and then put in ice. […] Serum glucose and triglycerides were determined by using COBAS Mira Plus blood chemistry analyzer (Roche Diagnostics, N.J.). Serum insulin and free fatty acids were measured by using ALPCO insulin ELISA kit and Wako NEFA kit, respectively. […]

In a further experiment the target is T2, PPARα (Rattus norvegicus, UniProt P37230).
T2 construct: H4IIE rat hepatoma cell line was obtained from ATCC; host or cells: H4IIE rat hepatoma cells
T2 sequence (P37230 1-468): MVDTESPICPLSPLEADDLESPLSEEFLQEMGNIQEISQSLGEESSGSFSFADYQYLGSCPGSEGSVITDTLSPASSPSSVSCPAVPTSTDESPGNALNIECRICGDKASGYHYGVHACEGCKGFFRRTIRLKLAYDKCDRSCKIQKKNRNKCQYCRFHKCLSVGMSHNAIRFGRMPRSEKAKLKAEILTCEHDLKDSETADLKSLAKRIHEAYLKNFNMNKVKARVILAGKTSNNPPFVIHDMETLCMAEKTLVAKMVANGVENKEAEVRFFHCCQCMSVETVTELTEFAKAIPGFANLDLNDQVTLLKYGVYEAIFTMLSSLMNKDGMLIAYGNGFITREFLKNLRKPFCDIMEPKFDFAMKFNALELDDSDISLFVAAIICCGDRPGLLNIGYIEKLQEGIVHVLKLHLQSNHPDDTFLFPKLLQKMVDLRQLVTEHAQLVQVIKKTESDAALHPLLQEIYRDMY
The experiment in a line: HD bDNA Assay (HD gene induction). It is filed as cell-based. The following applies: in section F; target not named there, values match the PPARα column; read-out: EC50. The procedure, abridged:
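H4IIE rat hepatoma cells (~100,000/well) treated 24 hours at 37° C in low-serum medium (5% charcoal/dextran-treated calf serum) with compounds. HD mRNA quantified by branched DNA luminescence assay; EC50's from sigmoidal non-linear regression.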

Consider `CCN(C(=O)Nc1ccc(OC(F)(F)F)cc1)C1CCc2cc(SC(C)(C)C(=O)O)c(F)cc2C1` (stereo not drawn) [Example 50, 2-{6-[1-Ethyl-3-(4-trifluoromethoxyphenyl)ureido]-3-fluoro-5,6,7,8-tetrahydronaphthalen-2-ylsulfanyl}-2-methylpropionic acid], for which the EC50 on PPARδ is > 3000 nM; on PPARα, 10 nM. For the same compound, the “Δ Plasma TG” value with ob/ob mice is −86%.
